Reference: patent EP2508198B1, “Peptides for suppressing inflammation reactions in hemodialysis” (Fresenius Medical Care Deutschland GmbH, priority 2011, dated 2014)
Residues, ends and D or L forms follow the SMILES beside them.

How the values were obtained:
[1] = test system: LPS-induced TNF-α release; experiment: Ex vivo stimulation of human PBMCs with LPS (pre-incubation or co-stimulation with peptides), TNF-α ELISA of supernatants; assay type: cell-based; design: TNF-α, Donor 2 / TNF-α, Donor 3 / TNF-α, Donor 4 / TNF-α, Donor 5 / TNF-α, Donor 6 / TNF-α, MV+SD: unit not given here; settings: for TNF-α, %: % of LPS control c (100.00); for effect on LPS-induced TNF-α release ("inflammation"): pre-stimulation or co-incubation
Procedure: Ex vivo stimulation of human peripheral blood mononuclear cells (PBMCs)
For the stimulation of PBMCs the following concentrations were chosen: • LPS 1 ng/ml alone • α-MSH • ∘ 1µM; 10µM; 100µM • Peg-KPV (pegylated tripeptide) • ∘ 1µM; 10µM; 100µM; 1000µM
The stimulation procedure was as described below:
All cells were incubated for 24h and centrifuged at 1700 rpm and supernatants were used for TNF- α ELISA measurement according to manufacturer's protocols.

IL-6 = experiment: Whole blood from uremic patients stimulated ex vivo with LPS with or without peptides (non heated and heated), IL-6 ELISA; assay type: cell-based, human; settings: whole blood of uremic patients, LPS 1 ng/ml, 24 h; average over the tested concentrations
Procedure: (§1) Whole blood studies with blood from uremic patients including heat sterilization experiments
(§2) A first goal of this experiment was to test whether the three amino acid antiinflammatory peptide KPV (unpegylated and pegylated version "monopeptide") will retain its activity under conditions of steam sterilization at 125°C for 15 min used in the production process of dialysis modules. A second goal was to study the anti-inflammatory effect of alpha-MSH and the peptides in uremic patients, which represent the real clinical situation.
(§3) To perform this experiment whole blood samples were taken from voluntary uremic patients (n=10) and subsequently stimulated ex vivo with lipopolysaccharide (LPS) with or without alpha-MSH, KPV or pegylated KPV (non heated and heated) and TNF-α and IL-6 release was determined by ELISA.
(§4) 25 ml blood from 10 uremic patients (dialysis patients treated at the hospital in Konstanz, Germany) was drawn and blood values were analyzed immediately. Blood was 1:10 diluted with PBS buffer and each stimulation condition was performed in triplicates and incubated at 200 µl in 96 well plates. […]

TNF-α = experiment: Whole blood from uremic patients stimulated ex vivo with LPS with or without peptides (non heated and heated), TNF-α ELISA; assay type: cell-based, human; settings: whole blood of uremic patients, LPS 1 ng/ml, 24 h; average over the tested concentrations
Procedure: as §1, §2, §3, §4

[2] = LPS 3 h pre-incubation, then LPS+peptide 24h, peptide 1 µM
[3] = LPS 3 h pre-incubation, then LPS+peptide 24h, peptide 10 µM
[4] = LPS 3 h pre-incubation, then LPS+peptide 24h, peptide 100 µM
[5] = LPS + peptide simultaneously, 24h, peptide 1 µM
[6] = LPS + peptide simultaneously, 24h, peptide 10 µM
[7] = LPS + peptide simultaneously, 24h, peptide 100 µM
[8] = mean of donors, LPS 3 h pre-incubation, then LPS+peptide 24h, peptide 1 µM
[9] = mean of donors, LPS 3 h pre-incubation, then LPS+peptide 24h, peptide 10 µM
[10] = mean of donors, LPS 3 h pre-incubation, then LPS+peptide 24h, peptide 100 µM
[11] = mean of donors, LPS + peptide simultaneously, 24h, peptide 1 µM
[12] = mean of donors, LPS + peptide simultaneously, 24h, peptide 10 µM
[13] = mean of donors, LPS + peptide simultaneously, 24h, peptide 100 µM
[14] = LPS 3 h pre-incubation, then LPS+peptide 24h, peptide 1000 µM
[15] = LPS + peptide simultaneously, 24h, peptide 1000 µM

## α-MSH [α-MSH Sigma]
[1]; [2]
  TNF-α, %: 89.62%
  TNF-α, Donor 2: 5005
  TNF-α, Donor 3: 4345
  TNF-α, Donor 4: 3968
  TNF-α, Donor 5: 2070
  TNF-α, Donor 6: 4286
[1]; [3]
  TNF-α, %: 81.56%
  TNF-α, Donor 2: 4193
  TNF-α, Donor 3: 3883
  TNF-α, Donor 4: 3674
  TNF-α, Donor 5: 1799
  TNF-α, Donor 6: 4356
[1]; [4]
  TNF-α, %: 54.57%
  TNF-α, Donor 2: 3009
  TNF-α, Donor 3: 2886
  TNF-α, Donor 4: 2073
  TNF-α, Donor 5: 942
  TNF-α, Donor 6: 2069
[1]; [5]
  TNF-α, %: 70.97%
  TNF-α, Donor 2: 4098
  TNF-α, Donor 3: 3273
  TNF-α, Donor 4: 3116
  TNF-α, Donor 5: 1319
  TNF-α, Donor 6: 3100
[1]; [6]
  TNF-α, %: 61.67%
  TNF-α, Donor 2: 3734
  TNF-α, Donor 3: 2776
  TNF-α, Donor 4: 2568
  TNF-α, Donor 5: 1237
  TNF-α, Donor 6: 2638
[1]; [7]
  TNF-α, %: 32.86%
  TNF-α, Donor 2: 1207
  TNF-α, Donor 3: 2337
  TNF-α, Donor 4: 1248
  TNF-α, Donor 5: 713
  TNF-α, Donor 6: 1386
[1]; [8]
  TNF-α, MV+SD: 3934.8
[1]; [9]
  TNF-α, MV+SD: 3581
[1]; [10]
  TNF-α, MV+SD: 2395.8
[1]; [11]
  TNF-α, MV+SD: 2981.2
[1]; [12]
  TNF-α, MV+SD: 2590.6
[1]; [13]
  TNF-α, MV+SD: 1380.2
[1]
  effect on LPS-induced TNF-α release ("inflammation"): inhibitory effect

## CC(=O)N[C@@H](CCCCN)C(=O)N1CCC[C@H]1C(=O)N[C@H](C(N)=O)C(C)C [KPV, Ac-Lys-Pro-Val-NH2] (Ac-Lys-Pro-Val-NH2)
IL-6
  average inhibition for IL-6: around 20%
TNF-α
  average inhibition for TNF-α: around 30%
[1]; [2]
  TNF-α, %: 85.28%
  TNF-α, Donor 2: 4025
  TNF-α, Donor 3: 4554
  TNF-α, Donor 4: 3541
  TNF-α, Donor 5: 2301
  TNF-α, Donor 6: 4299
[1]; [3]
  TNF-α, %: 83.53%
  TNF-α, Donor 2: 4126
  TNF-α, Donor 3: 4387
  TNF-α, Donor 4: 3666
  TNF-α, Donor 5: 2209
  TNF-α, Donor 6: 3949
[1]; [4]
  TNF-α, %: 73.40%
  TNF-α, Donor 2: 3542
  TNF-α, Donor 3: 5022
  TNF-α, Donor 4: 2886
  TNF-α, Donor 5: 1931
  TNF-α, Donor 6: 3731
[1]; [14]
  TNF-α, %: 38.98%
  TNF-α, Donor 3: 1816
  TNF-α, Donor 4: 1494
  TNF-α, Donor 5: 1054
  TNF-α, Donor 6: 2482
[1]; [5]
  TNF-α, %: 78.64%
  TNF-α, Donor 2: 3426
  TNF-α, Donor 3: 3955
  TNF-α, Donor 4: 3702
  TNF-α, Donor 5: 1893
  TNF-α, Donor 6: 3541
[1]; [6]
  TNF-α, %: 74.30%
  TNF-α, Donor 2: 3154
  TNF-α, Donor 3: 3907
  TNF-α, Donor 4: 3369
  TNF-α, Donor 5: 1706
  TNF-α, Donor 6: 3470
[1]; [7]
  TNF-α, %: 65.76%
  TNF-α, Donor 2: 2562
  TNF-α, Donor 3: 3505
  TNF-α, Donor 4: 3077
  TNF-α, Donor 5: 1525
  TNF-α, Donor 6: 3142
[1]; [15]
  TNF-α, %: 25.35%
  TNF-α, Donor 3: 931
  TNF-α, Donor 4: 934
  TNF-α, Donor 5: 594
  TNF-α, Donor 6: 1801
[1]; mean of donors (Donor 2 not done), LPS 3 h pre-incubation, then LPS+peptide 24h, peptide 1000 µM
  TNF-α, MV+SD: 1711.5
[1]; mean of donors (Donor 2 not done), LPS + peptide simultaneously, 24h, peptide 1000 µM
  TNF-α, MV+SD: 1065
[1]; [8]
  TNF-α, MV+SD: 3744
[1]; [9]
  TNF-α, MV+SD: 3667.4
[1]; [10]
  TNF-α, MV+SD: 3222.4
[1]; [11]
  TNF-α, MV+SD: 3303.4
[1]; [12]
  TNF-α, MV+SD: 3121.2
[1]; [13]
  TNF-α, MV+SD: 2762.2
[1]
  effect on LPS-induced TNF-α release ("inflammation"): inhibitory effect
